molecular target: T1, ΔF508-CFTR (Homo sapiens, UniProt P13569, DEL508-508); test: Membrane potential optical assay (FRET voltage-sensor dyes, VIPR), identification of potentiator compounds; type: cell-based; details: Table 3; assay not given
T1 construct: expressed in transfected cells
Source text: The optical membrane potential assay utilized voltage-sensitive FRET sensors described by Gonzalez and Tsien (See Gonzalez, J. E. and R. Y. Tsien (1995) “Voltage sensing by fluorescence resonance energy transfer in single cells” Biophys J 69(4): 1272-80, and Gonzalez, J. E. and R. Y. Tsien (1997) “Improved indicators of cell membrane potential that use fluorescence resonance energy transfer” Chem Biol 4(4): 269-77) in combination with instrumentation for measuring fluorescence changes such as the Voltage/Ion Probe Reader (VIPR) (See […]. Oades, et al. (1999) “Cell-based assays and instrumentation for screening ion-channel targets” Drug Discov Today 4(9): 431-439). These voltage sensitive assays are based on the change in fluorescence resonant energy transfer (FRET) between the membrane-soluble, voltage-sensitive dye, DiSBAC2(3), and a fluorescent phospholipid, CC2-DMPE, which is attached to the outer leaflet of the plasma membrane and acts as a FRET donor. Changes in membrane potential (Vm) cause the negatively charged DiSBAC2(3) to redistribute across the plasma membrane and the amount of energy transfer from CC2-DMPE changes accordingly. The changes in fluorescence emission were monitored using VIPRTM II, which is an integrated liquid handler and fluorescent detector designed to conduct cell-based screens in 96- or 384-well microtiter plates. To identify potentiators of ΔF508-CFTR, a double-addition HTS assay format was developed. During the first addition, a Cl^--free medium with or without test compound was added to each well. […] (in mM) NaCl 160, KCl 4.5, CaCl2 2, MgCl2 1, HEPES 10, pH 7.4 with NaOH. • Chloride-free bath solution: Chloride salts in Bath Solution #1 are substituted with gluconate salts. • CC2-DMPE: Prepared as a 10 mM stock solution in DMSO and stored at -20° C. • DiSBAC2(3): Prepared as a 10 mM stock in DMSO and stored at -20° C. NIH3T3 mouse fibroblasts stably expressing ΔF508-CFTR are used for optical measurements of membrane potential. […] For all optical assays, the cells were seeded at 30,000/well in 384-well matrigel-coated plates and cultured for 2 hrs at 37° C. before culturing at 27° C. for 24 hrs. for the potentiator assay.

T1 sequence (P13569 with tags, fused parts or gaps DEL508-508): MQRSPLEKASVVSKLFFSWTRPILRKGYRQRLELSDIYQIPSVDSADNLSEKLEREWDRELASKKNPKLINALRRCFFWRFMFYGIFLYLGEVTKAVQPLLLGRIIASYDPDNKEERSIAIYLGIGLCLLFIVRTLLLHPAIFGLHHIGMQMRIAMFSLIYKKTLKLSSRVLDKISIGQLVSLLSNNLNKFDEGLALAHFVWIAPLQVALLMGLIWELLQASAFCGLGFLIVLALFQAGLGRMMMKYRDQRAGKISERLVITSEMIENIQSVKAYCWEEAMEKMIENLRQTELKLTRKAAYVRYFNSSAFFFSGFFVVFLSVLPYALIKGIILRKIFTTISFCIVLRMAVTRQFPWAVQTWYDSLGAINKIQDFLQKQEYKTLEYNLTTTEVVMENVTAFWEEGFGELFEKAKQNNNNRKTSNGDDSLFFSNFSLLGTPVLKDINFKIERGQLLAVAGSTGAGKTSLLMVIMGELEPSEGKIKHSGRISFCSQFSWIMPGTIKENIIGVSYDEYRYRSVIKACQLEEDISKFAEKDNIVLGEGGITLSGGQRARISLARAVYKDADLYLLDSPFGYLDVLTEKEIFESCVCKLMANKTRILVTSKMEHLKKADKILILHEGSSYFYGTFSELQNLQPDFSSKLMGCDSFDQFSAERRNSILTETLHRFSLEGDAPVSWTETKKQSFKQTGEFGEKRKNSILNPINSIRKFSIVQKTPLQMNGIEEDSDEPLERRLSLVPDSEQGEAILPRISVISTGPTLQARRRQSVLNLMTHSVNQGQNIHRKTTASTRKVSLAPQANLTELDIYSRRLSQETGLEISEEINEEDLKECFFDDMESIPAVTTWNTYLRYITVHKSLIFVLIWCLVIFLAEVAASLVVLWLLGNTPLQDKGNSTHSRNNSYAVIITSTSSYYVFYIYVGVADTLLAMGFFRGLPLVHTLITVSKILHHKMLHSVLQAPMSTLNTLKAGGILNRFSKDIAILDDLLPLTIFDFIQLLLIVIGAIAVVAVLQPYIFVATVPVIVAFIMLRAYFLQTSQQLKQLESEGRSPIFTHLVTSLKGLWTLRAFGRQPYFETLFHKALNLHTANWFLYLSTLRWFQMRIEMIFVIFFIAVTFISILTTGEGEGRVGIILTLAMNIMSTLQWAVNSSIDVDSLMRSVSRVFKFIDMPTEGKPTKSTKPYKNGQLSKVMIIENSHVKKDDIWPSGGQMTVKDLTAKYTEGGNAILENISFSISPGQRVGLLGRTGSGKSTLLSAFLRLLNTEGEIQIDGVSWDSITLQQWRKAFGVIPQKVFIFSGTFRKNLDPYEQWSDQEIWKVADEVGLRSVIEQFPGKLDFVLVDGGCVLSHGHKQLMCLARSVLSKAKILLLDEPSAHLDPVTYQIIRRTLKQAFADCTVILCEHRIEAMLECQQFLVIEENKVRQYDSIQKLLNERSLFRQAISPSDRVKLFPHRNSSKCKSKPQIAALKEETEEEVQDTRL

`CCCc1ccc(N)cc1NC(=O)c1c[nH]c2ccccc2c1=O` [Compound 41, N-(5-amino-2-propyl-phenyl)-4-oxo-1H-quinoline-3-carboxamide] was tested. Which EC50 did it give?
The EC50 was under 10 µM.

For `COC(=O)c1cccc(-c2ccccc2NC(=O)c2c[nH]c3ccccc3c2=O)c1` [Compound 68, 3-[2-[(4-oxo-1H-quinolin-3-yl)carbonylamino]phenyl]benzoic acid methyl ester], which EC50 is on record?
Its EC50 is under 10 µM.

How did the EC50 turn out when `O=C(Nc1ccccc1-c1ccncc1)c1c[nH]c2ccccc2c1=O` [Compound 70, 4-oxo-N-[2-(4-pyridyl)phenyl]-1H-quinoline-3-carboxamide] was run?
Its EC50 is 10 to 25 µM.

Which EC50 does the source give for `Cc1cc(-c2ccccc2NC(=O)c2c[nH]c3ccccc3c2=O)ccc1F` [Compound 79, N-[2-(4-fluoro-3-methyl-phenyl)phenyl]-4-oxo-1H-quinoline-3-carboxamide] here?
Its EC50 is under 10 µM.

same assay, conditions: Table 3; assay not given; read-out: % Activity (% Efficacy, relative efficacy)

Which Emax does the source give for `CCCc1ccc(N)cc1NC(=O)c1c[nH]c2ccccc2c1=O` [Compound 41, N-(5-amino-2-propyl-phenyl)-4-oxo-1H-quinoline-3-carboxamide] here?
Its Emax is 25 to 100%.

How did the Emax turn out when `O=C(Nc1ccccc1Oc1ncc(C(F)(F)F)cc1Cl)c1c[nH]c2ccccc2c1=O` [Compound 42, N-[2-[[3-chloro-5-(trifluoromethyl)-2-pyridyl]oxy]phenyl]-4-oxo-1H-quinoline-3-carboxamide] was run?
Its Emax is 25 to 100%.

How did the Emax turn out when `CCOc1cccc(-c2cc(C(C)(C)C)c(O)cc2NC(=O)c2c[nH]c3ccccc3c2=O)c1` [Compound 43, N-[2-(3-ethoxyphenyl)-5-hydroxy-4-tert-butyl-phenyl]-4-oxo-1H-quinoline-3-carboxamide] was run?
Its Emax is 25 to 100%.

For `Cc1nc2cc(NC(=O)c3c[nH]c4ccccc4c3=O)ccc2s1` [Compound 44, N-(2-methylbenzothiazol-5-yl)-4-oxo-1H-quinoline-3-carboxamide], which Emax is on record?
The Emax was 25 to 100%.

For `O=C(Nc1cc(Cl)cc(NS(=O)(=O)CCN2CCOCC2)c1)c1c[nH]c2ccccc2c1=O` [Compound 46, N-[3-chloro-5-(2-morpholinoethylsulfonylamino)phenyl]-4-oxo-1H-quinoline-3-carboxamide], which Emax is on record?
The Emax was 25 to 100%.

`CC(C)c1ccc(NC(=O)c2c[nH]c3ccccc3c2=O)c(C(F)(F)F)c1` [Compound 47, N-[4-isopropyl-2-(trifluoromethyl)phenyl]-4-oxo-1H-quinoline-3-carboxamide] was tested. Which Emax did it give?
The Emax was 25 to 100%.

Which Emax does the source give for `O=C(Nc1cc(Cl)ccc1F)c1c[nH]c2ccccc2c1=O` [Compound 48, N-(5-chloro-2-fluoro-phenyl)-4-oxo-1H-quinoline-3-carboxamide] here?
Its Emax is 25 to 100%.

`COc1cccc(OC)c1-c1ccccc1NC(=O)c1c[nH]c2ccccc2c1=O` [Compound 49, N-[2-(2,6-dimethoxyphenyl)phenyl]-4-oxo-1H-quinoline-3-carboxamide] was tested. Which Emax did it give?
Its Emax is 25 to 100%.

How did the Emax turn out when `Cc1cc(C)c(NC(=O)c2c[nH]c3ccccc3c2=O)c(C)c1` [Compound 50, 4-oxo-N-(2,4,6-trimethylphenyl)-1H-quinoline-3-carboxamide] was run?
Its Emax is 25 to 100%.

How did the Emax turn out when `CC1CCN(S(=O)(=O)c2ccc3[nH]cc(C(=O)Nc4cc5[nH]ccc5cc4C(C)(C)C)c(=O)c3c2)CC1` [Compound 51, 6-[(4-methyl-1-piperidyl)sulfonyl]-4-oxo-N-(5-tert-butyl-1H-indol-6-yl)-1H-quinoline-3-carboxamide] was run?
The Emax was 25 to 100%.

`Cc1cccc(-c2ccccc2NC(=O)c2c[nH]c3ccccc3c2=O)c1` [Compound 52, N-[2-(m-tolyl)phenyl]-4-oxo-1H-quinoline-3-carboxamide] was tested. Which Emax did it give?
The Emax was 25 to 100%.

For `O=C(Nc1ccncc1)c1c[nH]c2ccccc2c1=O` [Compound 53, 4-oxo-N-(4-pyridyl)-1H-quinoline-3-carboxamide], which Emax is on record?
The Emax was under 25%.

`O=C(Nc1cccc2nsnc12)c1c[nH]c2ccccc2c1=O` [Compound 54, 4-oxo-N-(8-thia-7,9-diazabicyclo[4.3.0]nona-2,4,6,9-tetraen-5-yl)-1H-quinoline-3-carboxamide] was tested. Which Emax did it give?
The Emax was under 25%.

`COc1c(N)cc(C(C)(C)C)cc1NC(=O)c1c[nH]c2ccccc2c1=O` [Compound 55, N-(3-amino-2-methoxy-5-tert-butyl-phenyl)-4-oxo-1H-quinoline-3-carboxamide] was tested. Which Emax did it give?
The Emax was under 25%.

`O=C(Nc1cc2c(cc1O)CCCC2)c1c[nH]c2ccccc2c1=O` [Compound 56, 1,4-dihydro-N-(1,2,3,4-tetrahydro-6-hydroxynaphthalen-7-yl)-4-oxoquinoline-3-carboxamide] was tested. Which Emax did it give?
Its Emax is 25 to 100%.

Which Emax does the source give for `CCC1(c2ccc(NC(=O)c3c[nH]c4ccccc4c3=O)cc2)CCC(=O)NC1=O` (stereo not drawn) [Compound 57, N-[4-(3-ethyl-2,6-dioxo-3-piperidyl)phenyl]-4-oxo-1H-quinoline-3-carboxamide] here?
The Emax was over 100%.

With `Nc1cc(NC(=O)c2c[nH]c3ccccc3c2=O)ccc1OC(F)(F)F` [Compound 58, N-[3-amino-4-(trifluoromethoxy)phenyl]-4-oxo-1H-quinoline-3-carboxamide] as the molecule, how does the Emax read?
The Emax was 25 to 100%.

For `COc1ccc(C(C)C)cc1-c1ccccc1NC(=O)c1c[nH]c2ccccc2c1=O` [Compound 59, N-[2-(5-isopropyl-2-methoxy-phenyl)phenyl]-4-oxo-1H-quinoline-3-carboxamide], which Emax is on record?
Its Emax is over 100%.

With `CC(C)c1ccc(NC(=O)OC(C)(C)C)cc1NC(=O)c1c[nH]c2ccccc2c1=O` [Compound 60, [4-isopropyl-3-[(4-oxo-1H-quinolin-3-yl)carbonylamino]phenyl]aminoformic acid tert-butyl ester] as the molecule, how does the Emax read?
The Emax was 25 to 100%.

How did the Emax turn out when `Cc1cccc(NC(=O)c2c[nH]c3ccccc3c2=O)c1C` [Compound 61, N-(2,3-dimethylphenyl)-4-oxo-1H-quinoline-3-carboxamide] was run?
The Emax was 25 to 100%.

Which Emax does the source give for `O=C(Nc1cccc(OC(F)(F)F)c1)c1c[nH]c2ccccc2c1=O` [Compound 62, 4-oxo-N-[3-(trifluoromethoxy)phenyl]-1H-quinoline-3-carboxamide] here?
Its Emax is 25 to 100%.

`O=C(Nc1ccccc1-c1ccc(F)cc1F)c1c[nH]c2ccccc2c1=O` [Compound 63, N-[2-(2,4-difluorophenyl)phenyl]-4-oxo-1H-quinoline-3-carboxamide] was tested. Which Emax did it give?
The Emax was 25 to 100%.

How did the Emax turn out when `O=C(Nc1ccc2[nH]c(=O)[nH]c2c1)c1c[nH]c2ccccc2c1=O` [Compound 64, 4-oxo-N-(2-oxo-1,3-dihydrobenzoimidazol-5-yl)-1H-quinoline-3-carboxamide] was run?
The Emax was under 25%.

With `O=C(Nc1cc2[nH]ccc2cc1-c1cccnc1)c1c[nH]c2ccccc2c1=O` [Compound 65, 4-oxo-N-[5-(3-pyridyl)-1H-indol-6-yl]-1H-quinoline-3-carboxamide] as the molecule, how does the Emax read?
Its Emax is 25 to 100%.

With `O=C(Nc1ccc2c(c1)OC(F)(F)O2)c1c[nH]c2ccccc2c1=O` [Compound 66, N-(2,2-difluorobenzo[1,3]dioxol-5-yl)-4-oxo-1H-quinoline-3-carboxamide] as the molecule, how does the Emax read?
The Emax was 25 to 100%.

For `CCc1ccc2ncc(C(=O)Nc3ccc4cc[nH]c4c3)c(O)c2c1` [Compound 67, 6-ethyl-4-hydroxy-N-(1H-indol-6-yl)quinoline-3-carboxamide], which Emax is on record?
The Emax was 25 to 100%.

For `COC(=O)c1cccc(-c2ccccc2NC(=O)c2c[nH]c3ccccc3c2=O)c1` [Compound 68, 3-[2-[(4-oxo-1H-quinolin-3-yl)carbonylamino]phenyl]benzoic acid methyl ester], which Emax is on record?
Its Emax is 25 to 100%.

For `CC(C)c1ccc(NC(=O)c2c[nH]c3ccccc3c2=O)cc1N` [Compound 69, N-(3-amino-4-isopropyl-phenyl)-4-oxo-1H-quinoline-3-carboxamide], which Emax is on record?
Its Emax is 25 to 100%.

For `O=C(Nc1ccccc1-c1ccncc1)c1c[nH]c2ccccc2c1=O` [Compound 70, 4-oxo-N-[2-(4-pyridyl)phenyl]-1H-quinoline-3-carboxamide], which Emax is on record?
The Emax was 25 to 100%.

With `CC(C)OC(=O)c1cccc(-c2ccccc2NC(=O)c2c[nH]c3ccccc3c2=O)c1` [Compound 71, 3-[2-[(4-oxo-1H-quinolin-3-yl)carbonylamino]phenyl]benzoic acid isopropyl ester] as the molecule, how does the Emax read?
The Emax was 25 to 100%.

With `CCc1ccccc1NC(=O)c1c[nH]c2ccccc2c1=O` [Compound 72, N-(2-ethylphenyl)-4-oxo-1H-quinoline-3-carboxamide] as the molecule, how does the Emax read?
Its Emax is 25 to 100%.

How did the Emax turn out when `O=C(Nc1ccc2nc(-c3ccccc3)[nH]c2c1)c1c[nH]c2ccccc2c1=O` [Compound 73, 4-oxo-N-(2-phenyl-3H-benzoimidazol-5-yl)-1H-quinoline-3-carboxamide] was run?
Its Emax is under 25%.

`O=C(Nc1ccc(C(F)(F)F)cn1)c1c[nH]c2ccccc2c1=O` [Compound 74, 4-oxo-N-[5-(trifluoromethyl)-2-pyridyl]-1H-quinoline-3-carboxamide] was tested. Which Emax did it give?
Its Emax is under 25%.

Which Emax does the source give for `O=C(Nc1cnc2ccccc2c1)c1c[nH]c2ccccc2c1=O` [Compound 75, 4-oxo-N-(3-quinolyl)-1H-quinoline-3-carboxamide] here?
The Emax was under 25%.

For `O=C(Nc1ccccc1-c1ccc(F)c(F)c1)c1c[nH]c2ccccc2c1=O` [Compound 76, N-[2-(3,4-difluorophenyl)phenyl]-4-oxo-1H-quinoline-3-carboxamide], which Emax is on record?
The Emax was 25 to 100%.

`O=C(Nc1cc2[nH]ccc2cc1F)c1c[nH]c2ccccc2c1=O` [Compound 77, N-(5-fluoro-1H-indol-6-yl)-4-oxo-1H-quinoline-3-carboxamide] was tested. Which Emax did it give?
The Emax was 25 to 100%.

With `NS(=O)(=O)c1ccccc1NC(=O)c1c[nH]c2ccccc2c1=O` [Compound 78, 4-oxo-N-(2-sulfamoylphenyl)-1H-quinoline-3-carboxamide] as the molecule, how does the Emax read?
The Emax was under 25%.

With `Cc1cc(-c2ccccc2NC(=O)c2c[nH]c3ccccc3c2=O)ccc1F` [Compound 79, N-[2-(4-fluoro-3-methyl-phenyl)phenyl]-4-oxo-1H-quinoline-3-carboxamide] as the molecule, how does the Emax read?
Its Emax is 25 to 100%.
